Measured values: patent publication US10780074B2, “Compounds and uses thereof” (Sunovion Pharmaceuticals Inc., priority 2017, dated 2020)
Counter-ions that a name gives are not always drawn.

Tested on: behaviors of compound-treated mice
Assay: Neuropharmacological Assay (SmartCube)
Format: in vivo
Settings: for minimal effective dose: Mus musculus, ip, 0.25 h, dose having 50% or more total activity in SmartCube, i.p., read-out: MED (minimal effective dose); for AD: ADHD (probability that activity matches class) / AG: analgesic (probability that activity matches class) / AX: anxiolytic (probability that activity matches class) / CE: cognitive enhancer (probability that activity matches class) / DP: anti-depressant (probability that activity matches class) / MS: mood stabilizer (probability that activity matches class) / PS: anti-psychotic (probability that activity matches class) / SD: sedative hypnotic (probability that activity matches class) / UN: uncharacterized CNS activity (probability that activity matches class): i.p. 15 min before behavioral test, most efficacious dose(s) of 3 doses
Procedure, shortened: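 Mice dosed i.p. 15 min before testing, with compound in N-methyl-2-pyrrolidone/PEG/propylene glycol, were video-recorded and algorithmically compared with reference-drug behavioral signatures. This gave class-match probabilities (antidepressant, anxiolytic, etc.) at the most efficacious of 3 doses. MED was defined as the dose with ≥50% total activity, usually tested across 0.3–30 mpk.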

Structure (SMILES) | minimal effective dose [mg/kg] | AD: ADHD (probability that activity matches class) | AG: analgesic (probability that activity matches class) | AX: anxiolytic (probability that activity matches class) | CE: cognitive enhancer (probability that activity matches class) | DP: anti-depressant (probability that activity matches class) | MS: mood stabilizer (probability that activity matches class) | PS: anti-psychotic (probability that activity matches class) | SD: sedative hypnotic (probability that activity matches class) | UN: uncharacterized CNS activity (probability that activity matches class)
NC[C@H]1OCCc2c(-c3ncco3)cccc21 [Compound 107, (S)-(5-(Oxazol-2-yl)isochroman-1-yl)methanamine hydrochloride salt] | 10 to 30 | + (LOQ ≤ + <5%) | + (LOQ ≤ + <5%) | + (LOQ ≤ + <5%) | + (LOQ ≤ + <5%) | +++ (25% ≤ +++ <50%) | + (LOQ ≤ + <5%) | + (LOQ ≤ + <5%) | + (LOQ ≤ + <5%) | + (LOQ ≤ + <5%)
NC[C@H]1OCCc2c(-c3ncc[nH]3)cccc21 [Compound 109, (S)-(5-(1H-Imidazol-2-yl)isochroman-1-yl)methanamine hydrochloride salt] | > 30 | + (LOQ ≤ + <5%) | + (LOQ ≤ + <5%) | ++ (5% ≤ ++ <25%) | + (LOQ ≤ + <5%) | ++ (5% ≤ ++ <25%) | + (LOQ ≤ + <5%) | + (LOQ ≤ + <5%) | + (LOQ ≤ + <5%) | + (LOQ ≤ + <5%)
CNC[C@@H]1OCCc2c(-c3ncc[nH]3)cccc21 [Compound 110, (R)-1-(5-(1H-Imidazol-2-yl)isochroman-1-yl)-N-methylmethanamine hydrochloride salt] | 10 to 30 | + (LOQ ≤ + <5%) | + (LOQ ≤ + <5%) | ++ (5% ≤ ++ <25%) | + (LOQ ≤ + <5%) | + (LOQ ≤ + <5%) | + (LOQ ≤ + <5%) | + (LOQ ≤ + <5%) | + (LOQ ≤ + <5%) | + (LOQ ≤ + <5%)
CNC[C@H]1OCCc2c(-c3ncc[nH]3)cccc21 [Compound 111, (S)-1-(5-(1H-Imidazol-2-yl)isochroman-1-yl)-N-methylmethanamine hydrochloride salt] | 10 to 30 | + (LOQ ≤ + <5%) | + (LOQ ≤ + <5%) | ++ (5% ≤ ++ <25%) | + (LOQ ≤ + <5%) | + (LOQ ≤ + <5%) | + (LOQ ≤ + <5%) | + (LOQ ≤ + <5%) | + (LOQ ≤ + <5%) | + (LOQ ≤ + <5%)
NC[C@@H]1OCCc2c(-c3cn[nH]c3)cccc21 [Compound 116, (R)-(5-(1H-pyrazol-4-yl)isochroman-1-yl)methanamine hydrochloride salt] | 3 to 10 | + (LOQ ≤ + <5%) | + (LOQ ≤ + <5%) | ++ (5% ≤ ++ <25%) | + (LOQ ≤ + <5%) | ++++ (50% ≤ ++++) | + (LOQ ≤ + <5%) | ++ (5% ≤ ++ <25%) | + (LOQ ≤ + <5%) | ++ (5% ≤ ++ <25%)
NC[C@H]1OCCc2c(-c3cn[nH]c3)cccc21 [Compound 117, (S)-(5-(1H-pyrazol-4-yl)isochroman-1-yl)methanamine hydrochloride salt] | 3 to 10 | + (LOQ ≤ + <5%) | + (LOQ ≤ + <5%) | ++ (5% ≤ ++ <25%) | + (LOQ ≤ + <5%) | ++ (5% ≤ ++ <25%) | + (LOQ ≤ + <5%) | ++ (5% ≤ ++ <25%) | ++ (5% ≤ ++ <25%) | ++ (5% ≤ ++ <25%)
CNC[C@@H]1OCCc2c(-c3cn[nH]c3)cccc21 [Compound 118, (R)-1-(5-(1H-pyrazol-4-yl)isochroman-1-yl)-N-methylmethanamine hydrochloride salt] | 10 to 30 | + (LOQ ≤ + <5%) | ++ (5% ≤ ++ <25%) | ++ (5% ≤ ++ <25%) | + (LOQ ≤ + <5%) | ++ (5% ≤ ++ <25%) | + (LOQ ≤ + <5%) | + (LOQ ≤ + <5%) | +++ (25% ≤ +++ <50%) | ++ (5% ≤ ++ <25%)
CNC[C@H]1OCCc2c(-c3cn[nH]c3)cccc21 [Compound 119, (S)-1-(5-(1H-pyrazol-4-yl)isochroman-1-yl)-N-methylmethanamine hydrochloride salt] | ≤ 3 | ++ (5% ≤ ++ <25%) | + (LOQ ≤ + <5%) | ++ (5% ≤ ++ <25%) | + (LOQ ≤ + <5%) | ++++ (50% ≤ ++++) | + (LOQ ≤ + <5%) | + (LOQ ≤ + <5%) | ++ (5% ≤ ++ <25%) | + (LOQ ≤ + <5%)
CNC[C@@H]1OCCc2c(-c3cc(C)nc(C)c3)cccc21 [Compound 124, (R)-1-(5-(2,6-dimethylpyridin-4-yl)isochroman-1-yl)-N-methylmethanamine dihydrochloride] | 10 to 30 | + (LOQ ≤ + <5%) | + (LOQ ≤ + <5%) | + (LOQ ≤ + <5%) | + (LOQ ≤ + <5%) | + (LOQ ≤ + <5%) | + (LOQ ≤ + <5%) | + (LOQ ≤ + <5%) | + (LOQ ≤ + <5%) | + (LOQ ≤ + <5%)
CNC[C@H]1OCCc2c(-c3cc(C)nc(C)c3)cccc21 [Compound 125, (S)-1-(5-(2,6-dimethylpyridin-4-yl)isochroman-1-yl)-N-methylmethanamine dihydrochloride] | ≤ 3 | + (LOQ ≤ + <5%) | + (LOQ ≤ + <5%) | + (LOQ ≤ + <5%) | + (LOQ ≤ + <5%) | ++++ (50% ≤ ++++) | + (LOQ ≤ + <5%) | + (LOQ ≤ + <5%) | + (LOQ ≤ + <5%) | ++++ (50% ≤ ++++)
Cc1cc(-c2cccc3c2CCO[C@H]3CN)cc(C)n1 [Compound 126, dihydrochloride] | 10 to 30 | + (LOQ ≤ + <5%) | + (LOQ ≤ + <5%) | + (LOQ ≤ + <5%) | + (LOQ ≤ + <5%) | + (LOQ ≤ + <5%) | + (LOQ ≤ + <5%) | + (LOQ ≤ + <5%) | + (LOQ ≤ + <5%) | + (LOQ ≤ + <5%)
Cc1cc(-c2cccc3c2CCO[C@@H]3CN)cc(C)n1 [Compound 127, dihydrochloride] | 10 to 30 | + (LOQ ≤ + <5%) | + (LOQ ≤ + <5%) | + (LOQ ≤ + <5%) | + (LOQ ≤ + <5%) | ++ (5% ≤ ++ <25%) | + (LOQ ≤ + <5%) | + (LOQ ≤ + <5%) | + (LOQ ≤ + <5%) | + (LOQ ≤ + <5%)
NC[C@@H]1OCCCc2c(-c3ccccn3)cccc21 [Compound 158, (R)-(6-(pyridin-2-yl)-1,3,4,5-tetrahydrobenzo[c]oxepin-1-yl)methanamine hydrochloride salt] | 10 to 30 | + (LOQ ≤ + <5%) | + (LOQ ≤ + <5%) | ++ (5% ≤ ++ <25%) | + (LOQ ≤ + <5%) | + (LOQ ≤ + <5%) | + (LOQ ≤ + <5%) | + (LOQ ≤ + <5%) | + (LOQ ≤ + <5%) | + (LOQ ≤ + <5%)
